# Laboratory results published in ChEMBL document CHEMBL1949641, “Anti-inflammatory mechanism of 15,16-epoxy-3α-hydroxylabda-8,13(16),14-trien-7-one via inhibition of LPS-induced multicellular signaling pathways” (J Nat Prod, 2012).
# Calls of active or inactive are those of the source. The rule behind the calls is not given here.
# Tests used:
# RAW264.7 [1] = experiment: Inhibition of NF-kappaB transcriptional activity expressed in mouse RAW264.7 cells assessed as inhibition of LPS-induced secretory alkaline phosphatase expression at 10 uM treated 2 hrs before LPS challenge measured after 18 hrs; type: cell-based
# RAW264.7 [2] = experiment: Inhibition of NF-kappaB transcriptional activity expressed in mouse RAW264.7 cells assessed as inhibition of LPS-induced secretory alkaline phosphatase expression treated 2 hrs before LPS challenge measured after 18 hrs; type: cell-based
# RAW264.7 [3] = experiment: Cytotoxicity against mouse RAW264.7 cells assessed as cell viability up to 50 uM after 24 hrs by MTT assay; type: cell-based; details: raw264.7, 24 h
# RAW264.7 [4] = experiment: Antiinflammatory activity in mouse RAW264.7 cells assessed as inhibition of LPS-induced nitric oxide production treated 2 hrs before LPS challenge measured after 18 hrs by Griess reaction method; type: functional, cell-based
# RAW264.7 [5] = experiment: Antiinflammatory activity in mouse RAW264.7 cells assessed as inhibition of LPS-induced iNOS expression treated 2 hrs before LPS challenge measured after 18 hrs by Western blotting; type: functional, cell-based
# RAW264.7 [6] = experiment: Antiinflammatory activity in mouse RAW264.7 cells assessed as inhibition of LPS-induced COX2 expression treated 2 hrs before LPS challenge measured after 18 hrs by Western blotting; type: functional, cell-based
# RAW264.7 [7] = experiment: Inhibition of NF-kappaB transcriptional activity expressed in mouse RAW264.7 cells assessed as inhibition of LPS-induced secretory alkaline phosphatase expression at 5 uM treated 2 hrs before LPS challenge measured after 18 hrs; type: cell-based
# RAW264.7 [8] = experiment: Inhibition of NF-kappaB transcriptional activity expressed in mouse RAW264.7 cells assessed as inhibition of LPS-induced secretory alkaline phosphatase expression at 15 uM treated 2 hrs before LPS challenge measured after 18 hrs; type: cell-based
# RAW264.7 [9] = experiment: Inhibition of NF-kappaB transcriptional activity expressed in mouse RAW264.7 cells assessed as inhibition of LPS-induced secretory alkaline phosphatase expression at 25 uM treated 2 hrs before LPS challenge measured after 18 hrs; type: cell-based
# RAW264.7 [10] = experiment: Inhibition of NF-kappaB transcriptional activity expressed in mouse RAW264.7 cells assessed as inhibition of LPS-induced secretory alkaline phosphatase expression at 50 uM treated 2 hrs before LPS challenge measured after 18 hrs; type: cell-based
# RAW264.7 [11] = experiment: Inhibition of NF-kappaB activation in mouse RAW264.7 cells assessed as inhibition of LPS-induced IkappaBalpha phosphorylation at 50 uM treated 2 hrs before LPS challenge measured after 15 to 20 mins by Western blotting; type: cell-based
# RAW264.7 [12] = experiment: Inhibition of NF-kappaB activation in mouse RAW264.7 cells assessed as protection of LPS-induced IkappaBalpha degradation at 50 uM treated 2 hrs before LPS challenge measured after 10 to 20 mins by Western blotting; type: cell-based
# RAW264.7 [13] = experiment: Inhibition of LPS-induced NFkappaB/AP-1 DNA binding activity in mouse RAW264.7 cells treated 2 hrs before LPS challenge measured after 1 hr by electrophoretic mobility shift assay; type: cell-based
# [14] = biological target: T1, Nuclear factor NF-kappa-B p105 subunit (Mus musculus) (UniProt P25799); experiment: Inhibition of LPS-induced NF-kappaB p50 nuclear translocation in mouse RAW264.7 cells treated 2 hrs before LPS challenge measured up to 1 hr Western blot analysis; type: cell-based
# T1 sequence (whole entry): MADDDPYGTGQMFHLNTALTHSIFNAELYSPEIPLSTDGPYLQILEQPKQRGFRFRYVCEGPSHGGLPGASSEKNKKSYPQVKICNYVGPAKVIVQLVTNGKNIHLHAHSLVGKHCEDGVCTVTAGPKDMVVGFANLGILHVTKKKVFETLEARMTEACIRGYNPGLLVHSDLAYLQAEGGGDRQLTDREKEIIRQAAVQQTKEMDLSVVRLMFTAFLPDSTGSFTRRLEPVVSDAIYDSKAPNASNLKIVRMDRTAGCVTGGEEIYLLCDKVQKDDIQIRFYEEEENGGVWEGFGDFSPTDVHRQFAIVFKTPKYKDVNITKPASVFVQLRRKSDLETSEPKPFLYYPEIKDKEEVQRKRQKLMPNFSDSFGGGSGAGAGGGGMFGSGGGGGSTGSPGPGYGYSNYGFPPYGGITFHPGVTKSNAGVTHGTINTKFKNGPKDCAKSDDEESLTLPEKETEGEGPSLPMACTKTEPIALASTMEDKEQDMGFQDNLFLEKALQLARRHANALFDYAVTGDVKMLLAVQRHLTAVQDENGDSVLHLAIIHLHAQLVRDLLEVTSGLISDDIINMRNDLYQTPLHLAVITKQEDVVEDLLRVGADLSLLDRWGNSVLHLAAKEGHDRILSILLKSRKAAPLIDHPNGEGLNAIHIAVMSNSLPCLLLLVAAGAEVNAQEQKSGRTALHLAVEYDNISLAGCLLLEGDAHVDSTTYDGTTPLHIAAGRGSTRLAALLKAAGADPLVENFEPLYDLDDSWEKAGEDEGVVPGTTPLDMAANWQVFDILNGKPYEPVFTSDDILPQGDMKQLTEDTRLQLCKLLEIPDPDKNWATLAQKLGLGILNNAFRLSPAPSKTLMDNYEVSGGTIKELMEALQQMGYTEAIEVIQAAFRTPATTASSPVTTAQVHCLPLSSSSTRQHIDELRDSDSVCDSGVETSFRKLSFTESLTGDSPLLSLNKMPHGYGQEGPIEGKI
# [15] = biological target: Transcription factor p65 (Mus musculus) (UniProt Q04207); experiment: Inhibition of LPS-induced NF-kappaB p65 nuclear translocation in mouse RAW264.7 cells treated 2 hrs before LPS challenge measured up to 1 hr Western blot analysis; type: cell-based
# RAW264.7 [16] = experiment: Antiinflammatory activity in mouse RAW264.7 cells assessed as inhibition of LPS-induced TNFalpha by ELISA; type: functional, cell-based
# RAW264.7 [17] = experiment: Inhibition of LPS-induced Akt phosphorylation in mouse RAW264.7 cells treated 2 hrs before LPS challenge measured after 15 to 30 mins by Western blot analysis; type: cell-based
# RAW264.7 [18] = experiment: Inhibition of LPS-induced NF-kappaB activation in mouse RAW264.7 cells assessed as inhibition p38alpha/beta phosphorylation at 50 uM treated 2 hrs before LPS challenge measured after 30 mins by Western blot analysis; type: cell-based
# RAW264.7 [19] = experiment: Inhibition of LPS-induced NF-kappaB activation in mouse RAW264.7 cells assessed as inhibition JNK phosphorylation at 50 uM treated 2 hrs before LPS challenge measured after 30 mins by Western blot analysis; type: cell-based
# RAW264.7 [20] = experiment: Inhibition of LPS-induced NF-kappaB activation in mouse RAW264.7 cells assessed as inhibition ERK phosphorylation at 50 uM treated 2 hrs before LPS challenge measured after 10 to 30 mins by Western blot analysis; type: cell-based
# Transcription factor p65 (Mus musculus), sequence (Q04207 whole entry): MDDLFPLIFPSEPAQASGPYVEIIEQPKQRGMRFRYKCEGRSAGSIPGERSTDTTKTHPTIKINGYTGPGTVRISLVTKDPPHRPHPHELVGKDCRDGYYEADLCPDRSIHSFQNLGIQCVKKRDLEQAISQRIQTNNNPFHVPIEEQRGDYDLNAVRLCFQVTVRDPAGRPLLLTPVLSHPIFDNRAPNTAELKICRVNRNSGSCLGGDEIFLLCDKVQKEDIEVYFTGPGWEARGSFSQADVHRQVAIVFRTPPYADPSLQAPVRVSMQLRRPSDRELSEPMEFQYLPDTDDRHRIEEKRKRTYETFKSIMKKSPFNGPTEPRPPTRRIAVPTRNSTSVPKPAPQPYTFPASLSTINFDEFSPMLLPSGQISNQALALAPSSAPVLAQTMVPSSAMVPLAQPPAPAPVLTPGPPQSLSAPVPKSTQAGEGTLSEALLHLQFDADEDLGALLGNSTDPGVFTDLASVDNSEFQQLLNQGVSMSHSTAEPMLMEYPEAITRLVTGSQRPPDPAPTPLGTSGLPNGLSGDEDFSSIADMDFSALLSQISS
SMILES,inhibition (RAW264.7 [1]),inhibition (RAW264.7 [2]),Activity (RAW264.7 [3]),IC50 (RAW264.7 [4]) [µM],inhibition (RAW264.7 [5]),inhibition (RAW264.7 [6]),inhibition (RAW264.7 [7]) [%],inhibition (RAW264.7 [8]) [%],inhibition (RAW264.7 [9]) [%],inhibition (RAW264.7 [10]) [%],inhibition (RAW264.7 [11]),Activity (RAW264.7 [12]),inhibition (RAW264.7 [13]),inhibition [14],inhibition [15],IC50 (RAW264.7 [16]) [µM],inhibition (RAW264.7 [17]),inhibition (RAW264.7 [18]),inhibition (RAW264.7 [19]),inhibition (RAW264.7 [20])
Cc1ccc(S(=O)(=O)N[C@@H](Cc2ccccc2)C(=O)CCl)cc1,Active,–,–,–,–,–,–,–,–,–,–,–,–,–,–,–,–,–,–,–
CC1=C(CCc2ccoc2)[C@@]2(C)CC[C@@H](O)C(C)(C)[C@@H]2CC1=O,–,Dose-dependent effect,Non-toxic,27,Dose-dependent effect,Dose-dependent effect,20.9,56.6,69.1,90.3,Active,Active,Dose-dependent effect,Dose-dependent effect,Dose-dependent effect,38.5,Active,Active,Active,Active
